Reference: patent publication US20240011027A1, “METHODS AND COMPOSITIONS FOR RESTORING STMN2 LEVELS” (President and Fellows of Harvard College, priority 2020, published 2024)

What was measured:
Assay type in all cases: cell-based, human
patient's motor neurons = assay: axonal regrowth after axotomy in microfluidic devices, TDP-43 depleted patient's motor neurons; details: for axon extension from the microchannel (regrowth after injury), mean values / axonal regrowth after injury relative to the non-targeting control ASO: patient's motor neurons treated with siTARDBP, 18 hours after axotomy; for neurite outgrowth deficits following TDP-43 depletion: FIG. 92
Protocol: Sorted motor neurons were cultured in standard neuron microfluidic devices (SND150, XONA Microfluidics) mounted on glass coverslips coated with 0.1 mg/ml poly-D-lysine (Sigma-Aldrich) and 5 μg/ml laminin (Invitrogen) at a concentration of around 250,000 neurons/device. Axotomy was performed at day 7 of culture by repeated vacuum aspiration and reperfusion of the axon chamber until axons were cut effectively without disturbing cell bodies in the soma compartment.
To test if ASO SJ+94 could rescue axonal regrowth after TDP-43 depletion and injury, the patient's motor neurons were cultured in microfluidic devices that permitted axon growth into a chamber distinct from the neuronal cell bodies (FIG. 91A). Neurons cultured for 7 days in the soma compartment of the device extended axons through the microchannels into the axon chamber. Neurons were treated with siTARDBP and ASO SJ+94 before severing axons without disturbing cell bodies in the soma compartment. The axon extension was then measured from the microchannel to assess regrowth after injury (FIG. 91B, FIG. 91D).

STMN2 transcript = assay: qRT-PCR of truncated (cryptic) and full-length STMN2 RNA in patient's motor neurons treated with siTARDBP and ASOs; details: for STMN2 in TDP-43 depleted neurons: FIG. 93; for cry STMN2 in TDP-43 depleted neurons: FIG. 94; for cryptic STMN2 RNA levels (cryptic splicing) / full-length STMN2 RNA levels: patient's motor neurons treated with siTARDBP, ASO 30 nM to 0.03 nM, qRT-PCR normalized using RNA18S5, relative to NTC
Protocol: In total, 51 ASOs were screened in the patient's motor neurons for their ability to (1) suppress the generation of truncated STMN2 transcript as well as (2) restore the full-length STMN2 transcript.
In the first experiment the patient's motor neurons were treated with siTARDBP, the patient's motor neurons were then cultured with the various ASOs over a range of concentrations (ranging from 30 nM to 0.03 nM) before extracting total RNA. Extracted RNA was used to synthesize cDNA by reverse transcription. qRT-PCR was used to assess levels for both truncated and full-length STMN2 RNAs normalized using RNA18S5 expression.

STMN2 protein = assay: immunoblot of STMN2 protein levels in patient's motor neurons following reduction of TDP-43 by siRNA; details: patient's motor neurons after TDP-43 reduction by siRNA; compared to NTC / siRNA controls
Protocol: For analysis of TDP-43 and STMN2 protein expression levels, d10 MNs were lysed in RIPA buffer (150 mM Sodium Chloride; 1% Triton X-100; 0.5% sodium deoxycholate; 0.1% SDS; 50 mM Tris pH 8.0) containing protease and phosphatase inhibitors (Roche) for 20 min on ice, and centrifuged at high speed. 200 μL of RIPA buffer per well of 24-well culture were routinely used, which yielded ˜20 μg of total protein as determined by BCA (Thermo Scientific). After two washes with RIPA buffer, insoluble pellets were resuspended in 200 μl of UREA buffer (Bio-Rad). For immunoblot assays 2-3 μg of total protein were separated by SDS-PAGE (BioRad), transferred to PDVF membranes (BioRad) and probed with antibodies against TDP-43 (1:1000, ProteinTech Group), GAPDH (1:1000, Millipore) and STMN2 (1:3000, Novus). Insoluble pellets were loaded based on protein concentration of correspondent RIPA-soluble counterparts. The same PDVF membrane was immunoassayed 2-3 times using Restore™ PLUS Western Blot Stripping Buffer (Thermo Scientific). GAPDH levels were used to normalized each sample, and LiCor software was used to quantitate protein band signal.
After establishing and validating that the STMN2 ASOs could affect transcript levels, it was sought to determine if they could also rescue diminished protein levels observed after TDP-43 reduction. The patient's motor neurons were treated with siRNAs and either a nontargeting ASO (NTC) or one of the lead compounds from the screen (FIG. 90, FIG. 97). […] Unlike the cells treated with the non-targeting control ASO (NTC), restoration of STMN2 to the levels of the siRNA controls for the lead candidates was observed.

STMN2 RNA = assay: qRT-PCR of full-length STMN2 after proteasome inhibition with MG-132 in patient's motor neurons; details: patient's motor neurons; MG-132 (1 uM)
Excerpt: It was established that ASO (SJ+94) and ASO (SJ-1) suppressed cryptic splicing of STMN2 and restored full length STMN2 RNA in the patient's motor neurons when there is a reduction in nuclear TDP-43. […] Post-mortem tissue studies have shown that TDP-43 mis-localization and its aggregation in cytoplasm is a hallmark of sporadic ALS. Several groups have reported cytoplasmic aggregation of TDP-43 akin to that observed in post-mortem tissue of sporadic ALS patients occurs in response to pharmacological inhibition of the proteasome (1, 4).

STMN2 = STMN2 multiplexed qPCR assay in neurons after TDP-43 reduction by ASO or siRNA; details: compared with SCR ASO
Excerpt: FIGS. 17A-17C show RNA can be readily collected from CSF-derived exosomes and then converted into cDNA to assay for full and cryptic STMN2 transcripts as well as control RNAs for normalization (FIG. 17A). […] STMN2 transcripts are normalized to the house keeping ribosomal subunit RNA18S5. TDP-43 levels were reduced in cultured human neurons using either an antisense oligonucleotide (ASO) to deplete cells of TDP-43 or an siRNAs to induce TDP-43 knockdown. […] Using the validated multiplexed qPCR assay, next RNA was isolated from CSF-derived exosomes using 300 ul patient samples to determine the levels of cryptic STMN2 (n=7 healthy controls, n=2 disease mimics and n=9 ALS patients). […] Note that even in this modest set of samples that the increase in cryptic exon expression in ALS patients was highly significant (P<0.005). […] Finally, there is an interesting “texture” to the patient data with some patients showing high levels of expression and others more normal levels. It is hypothesized that patients with lower levels may either be earlier in their disease or have non-TDP-43 disease.

STMN2 cryptic exon = assay: RT-PCR detection of transcripts containing the STMN2 cryptic exon in hMNs treated with proteasome inhibitors
Protocol: It was then asked if cryptic exon inclusion could be contributing to decreased STMN2 levels in hMNs after proteasome inhibition. To accomplish this goal, an RT-PCR assay was developed to detect transcripts containing the cryptic exon (FIG. 5F). […] Total RNA was isolated from neurons using RNeasy Mini Kit (Qiagen) according to manufacturer's instructions. A total of 300-1000 ng of total RNA was used to synthesize cDNA by reverse transcription according to the iSCRIPT kit (Bio-rad). RT-PCR was then performed using one cryptic exon-specific primer and then analyzed using the Agilent 2200 Tapestation.

hMNs = assay: neurite outgrowth, Sholl analysis of hMNs; details: 10 μM; STMN2+/+ and STMN2−/− hMNs
Protocol: Given the reported role of STMN2 in regulating axonal growth by promoting the dynamic instability of microtubules (77), phenotypic assays were carried out characterizing neurite outgrowth in the STMN2−/− hMNs. After 7 days in culture, sorted hMNs were fixed and stained for β-III-tubulin to label the neuronal processes (FIG. 4E).
Individual Tuj1-positive neurons used for Sholl analyses were randomly selected and imaged using a Nikon Eclipse TE300 with a 40× objective. The neurites were traced using the ImageJ (NIH) plugin NeuronJ (78), and Sholl analysis was performed using the Sholl tool of Fiji (96), quantifying the number of intersections at intervals from the cell body. Statistical analysis was performed by comparing the number of intersections of KO clones with the parental WT line for each 10 μm interval using Prism 6 (Graph Pad, La Jolla, CA, USA). Significance was assessed by a standard Student's t-test, with a p value of p<0.05 considered as significant.

With “NTC: non-targeting control ASO CCTATAGGACTATCCAGGAA (chemistry not given here) [reference compound]” the “axon extension from the microchannel (regrowth after injury), mean values” (patient's motor neurons) was 176 um.

In the case of “SJ-1: antisense oligonucleotide AGGTCTTCTGCCGAGTC C, fully modified with MOE sugars and phosphorothioate linkages (antisense AGGTCTTCTGCCGAGTCC; all 2'-MOE, all phosphorothioate, methylation of C not given here)”, the “STMN2 in TDP-43 depleted neurons” value (STMN2 transcript) was “restored”, the “cry STMN2 in TDP-43 depleted neurons” value (STMN2 transcript) was “reduced” and the “cryptic STMN2 RNA levels (cryptic splicing)” value (STMN2 transcript) was “suppressing cryptic splicing”. For the same compound, the “full-length STMN2 RNA levels” value (STMN2 transcript) was “restoring full length STMN2 RNA”, the STMN2 protein levels (STMN2 protein) was “increase is significant” and the “neurite outgrowth deficits following TDP-43 depletion” value (patient's motor neurons) was “rescued”. The “axon extension from the microchannel (regrowth after injury), mean values” (patient's motor neurons) was 243 um, the “axonal regrowth after injury relative to the non-targeting control ASO” value (patient's motor neurons) was “significantly increased regrowth” and the “full-length STMN2 RNA levels, higher than non-targeting control ASO (NTC)” value (STMN2 RNA) was 30%.

For “TDP-43 ASO: antisense oligonucleotide to deplete cells of TDP-43, AAGGCTTCATATTGTACTTT (chemistry not given here)”, the “relative expression of STMN2 (Exons 3-4)” value (STMN2) was “STMN2 reduction” and the “relative expression of cryptic STMN2” value (STMN2) was “cryptic exon induction”.

With “SJ+94: antisense oligonucleotide CATTTCTTCTTAGGCAGGCT, fully modified with MOE sugars and phosphorothioate linkages (all 2'-MOE, all phosphorothioate, methylation of C not given here)” the “STMN2 in TDP-43 depleted neurons” value (STMN2 transcript) was “restored”, the “cry STMN2 in TDP-43 depleted neurons” value (STMN2 transcript) was “reduced” and the “cryptic STMN2 RNA levels (cryptic splicing)” value (STMN2 transcript) was “suppress cryptic splicing”. The “full-length STMN2 RNA levels” value (STMN2 transcript) was “restore full length STMN2 RNA”, the STMN2 protein levels (STMN2 protein) was “increase is significant” and the “neurite outgrowth deficits following TDP-43 depletion” value (patient's motor neurons) was “rescued”. The “axonal regrowth after injury relative to the non-targeting control ASO” value (patient's motor neurons) was “significantly increased regrowth” and the “full length STMN2 RNA levels compared to non-targeting control ASO (NTC)” value (STMN2 RNA) was “significantly higher levels of full length STMN2 RNA”.

CC(C)C[C@H](NC(=O)[C@H](Cc1ccccc1)NC(=O)c1cnccn1)B(O)O [Bortezomib] was tested, and the “transcripts containing the STMN2 cryptic exon (PCR assay)” value (STMN2 cryptic exon) was “presence of transcripts containing the STMN2 cryptic exon”.

For “SJ+101: antisense oligonucleotide TTCACATTCATTTCTTCTTAG, fully modified with MOE sugars and phosphorothioate linkages (all 2'-MOE, all phosphorothioate, methylation of C not given here)”, the “STMN2 in TDP-43 depleted neurons” value (STMN2 transcript) was “restored”, the “cry STMN2 in TDP-43 depleted neurons” value (STMN2 transcript) was “reduced” and the STMN2 protein levels (STMN2 protein) was “increase is significant”. For the same compound, the “neurite outgrowth deficits following TDP-43 depletion” value (patient's motor neurons) was “rescued”.

For C[C@@H](N)[C@H]1CC[C@H](C(=O)Nc2ccncc2)CC1 [Y-27632], the “neurite outgrowth (Sholl analysis)” value (hMNs) was “enhancing the outgrowth of the STMN^+/+ line but not the STMN^−/− line”.
